Measured values taken from publication PMC5218480 (PLoS ONE, 2017).

System: MV-4-11 cells
Experiment: Gene expression microarray analysis (Affymetrix PrimeView) and GSEA
Type: cell-based, human
Set-up: RFU PODN (11730768_x_at) / Fold change /veh PODN (11730768_x_at) / RFU LINC00158 (11744669_a_at) / Fold change /veh LINC00158 (11744669_a_at) / RFU DUSP10 (11751237_a_at) / Fold change /veh DUSP10 (11751237_a_at) / RFU ID3 (11757404_x_at) / Fold change /veh ID3 (11757404_x_at) / RFU PLEKHG5 (11737974_s_at) / Fold change /veh PLEKHG5 (11737974_s_at) / RFU LRRC4B (11730491_at) / Fold change /veh LRRC4B (11730491_at) / RFU GIMAP4 (11747438_a_at) / Fold change /veh GIMAP4 (11747438_a_at) / RFU KRT8 (11758183_x_at) / Fold change /veh KRT8 (11758183_x_at) / RFU CNN1 (11734310_a_at) / Fold change /veh CNN1 (11734310_a_at) / RFU VPS37D (11726825_at) / Fold change /veh VPS37D (11726825_at) / RFU C10orf10 (11716522_x_at) / Fold change /veh C10orf10 (11716522_x_at) / RFU KIR2DL2 /// KIR2DL4 /// KIR2DL5A /// KIR2DL5B /// KIR2DS1 /// KIR2DS2 /// KIR2DS3 /// KIR2DS4 /// KIR3DL3 /// KIR3DL3 /// KIR3DS1 (11738374_at) / Fold change /veh KIR2DL2 /// KIR2DL4 /// KIR2DL5A /// KIR2DL5B /// KIR2DS1 /// KIR2DS2 /// KIR2DS3 /// KIR2DS4 /// KIR3DL3 /// KIR3DL3 /// KIR3DS1 (11738374_at) / RFU C1QL1 (11718748_at) / Fold change /veh C1QL1 (11718748_at) / RFU TMPRSS4 (11747572_a_at) / Fold change /veh TMPRSS4 (11747572_a_at) / RFU HAMP (11756126_x_at) / Fold change /veh HAMP (11756126_x_at) / RFU RNFT2 (11725882_a_at) / Fold change /veh RNFT2 (11725882_a_at) / RFU NR4A2 (11747474_a_at) / Fold change /veh NR4A2 (11747474_a_at) / RFU ABCC12 (11746883_a_at) / Fold change /veh ABCC12 (11746883_a_at) / RFU TMEM136 (11760407_x_at) / Fold change /veh TMEM136 (11760407_x_at) / RFU CLDN22 /// WWC2 (11732394_at) / Fold change /veh CLDN22 /// WWC2 (11732394_at) / RFU HLA-DPB1 (11760878_x_at) / Fold change /veh HLA-DPB1 (11760878_x_at) / RFU SPINT1 (11716480_a_at) / Fold change /veh SPINT1 (11716480_a_at) / RFU GAP43 (11754022_s_at) / Fold change /veh GAP43 (11754022_s_at) / RFU A4GNT (11735810_at) / Fold change /veh A4GNT (11735810_at) / RFU PRB3 (11715151_x_at) / Fold change /veh PRB3 (11715151_x_at) / RFU TUBB4B (11761932_at) / Fold change /veh TUBB4B (11761932_at) / RFU CAPN14 (11732068_a_at) / Fold change /veh CAPN14 (11732068_a_at) / RFU TMCC2 (11721928_a_at) / Fold change /veh TMCC2 (11721928_a_at) / RFU IRGQ (11745062_a_at) / Fold change /veh IRGQ (11745062_a_at) / RFU FAM174B (11720279_a_at) / Fold change /veh FAM174B (11720279_a_at) / RFU TMPRSS4 (11748680_a_at) / Fold change /veh TMPRSS4 (11748680_a_at) / RFU FAM212B (11763350_a_at) / Fold change /veh FAM212B (11763350_a_at) / RFU PLEKHG5 (11743358_a_at) / Fold change /veh PLEKHG5 (11743358_a_at) / RFU ZSCAN30 (11745921_a_at) / Fold change /veh ZSCAN30 (11745921_a_at) / RFU CMKLR1 (11741424_a_at) / Fold change /veh CMKLR1 (11741424_a_at) / RFU LOC101060620 /// MAPK8IP1 (11723275_at) / Fold change /veh LOC101060620 /// MAPK8IP1 (11723275_at) / RFU SPTSSB (11747773_x_at) / Fold change /veh SPTSSB (11747773_x_at) / RFU PRSS12 (11739890_at) / Fold change /veh PRSS12 (11739890_at) / RFU BIN1 (11741810_x_at) / Fold change /veh BIN1 (11741810_x_at) / RFU WNT11 (11732464_a_at) / Fold change /veh WNT11 (11732464_a_at) / RFU C10orf10 (11716521_a_at) / Fold change /veh C10orf10 (11716521_a_at) / RFU C5orf56 (11738089_at) / Fold change /veh C5orf56 (11738089_at) / RFU CYB561 (11721691_x_at) / Fold change /veh CYB561 (11721691_x_at) / RFU ANKRD19P (11752326_a_at) / Fold change /veh ANKRD19P (11752326_a_at) / RFU OR2T12 /// OR2T33 /// OR2T8 (11738714_s_at) / Fold change /veh OR2T12 /// OR2T33 /// OR2T8 (11738714_s_at) / RFU VCAN (11748164_a_at) / Fold change /veh VCAN (11748164_a_at) / RFU JSRP1 (11732532_at) / Fold change /veh JSRP1 (11732532_at) / RFU KRTAP10-11 (11738290_x_at) / Fold change /veh KRTAP10-11 (11738290_x_at) / RFU MYO3A (11730013_a_at) / Fold change /veh MYO3A (11730013_a_at) / RFU EBF3 (11725865_a_at) / Fold change /veh EBF3 (11725865_a_at) / RFU CAMK2N1 (11719241_x_at) / Fold change /veh CAMK2N1 (11719241_x_at) / RFU C5orf56 (11738088_a_at) / Fold change /veh C5orf56 (11738088_a_at) / RFU OLFML3 (11715873_a_at) / Fold change /veh OLFML3 (11715873_a_at) / RFU LOC100653217 /// NTM (11731650_a_at) / Fold change /veh LOC100653217 /// NTM (11731650_a_at) / RFU MAPK11 (11762145_a_at) / Fold change /veh MAPK11 (11762145_a_at) / RFU FIZ1 (11724087_x_at) / Fold change /veh FIZ1 (11724087_x_at) / RFU OASL (11726364_x_at) / Fold change /veh OASL (11726364_x_at) / RFU SOX15 (11748057_x_at) / Fold change /veh SOX15 (11748057_x_at) / RFU CD79A (11719716_a_at) / Fold change /veh CD79A (11719716_a_at) / RFU HIST1H1D (11736915_at) / Fold change /veh HIST1H1D (11736915_at) / RFU CASKIN2 (11723855_a_at) / Fold change /veh CASKIN2 (11723855_a_at) / RFU LOC730098 (11760151_x_at) / Fold change /veh LOC730098 (11760151_x_at) / RFU OR4N2 (11742367_at) / Fold change /veh OR4N2 (11742367_at) / RFU PRRT2 (11749266_a_at) / Fold change /veh PRRT2 (11749266_a_at) / RFU SNX32 (11753110_a_at) / Fold change /veh SNX32 (11753110_a_at) / RFU CDHR5 (11726645_a_at) / Fold change /veh CDHR5 (11726645_a_at) / RFU RCAN1 (11760418_a_at) / Fold change /veh RCAN1 (11760418_a_at) / RFU FAM167A (11723789_a_at) / Fold change /veh FAM167A (11723789_a_at) / RFU FAM26E (11764081_at) / Fold change /veh FAM26E (11764081_at) / RFU ISYNA1 (11749810_s_at) / Fold change /veh ISYNA1 (11749810_s_at) / RFU ACY1 (11761880_at) / Fold change /veh ACY1 (11761880_at) / RFU 11764098_at / Fold change /veh 11764098_at / RFU SAMD14 (11745864_x_at) / Fold change /veh SAMD14 (11745864_x_at) / RFU NPB (11741838_a_at) / Fold change /veh NPB (11741838_a_at) / RFU TMPRSS6 (11731388_a_at) / Fold change /veh TMPRSS6 (11731388_a_at) / RFU KRTAP10-2 (11738614_at) / Fold change /veh KRTAP10-2 (11738614_at) / RFU ARHGAP8 /// PRR5-ARHGAP8 (11727945_x_at) / Fold change /veh ARHGAP8 /// PRR5-ARHGAP8 (11727945_x_at) / RFU KRTAP5-7 /// NADSYN1 (11734609_at) / Fold change /veh KRTAP5-7 /// NADSYN1 (11734609_at) / RFU RASL12 (11751679_a_at) / Fold change /veh RASL12 (11751679_a_at) / RFU CDKN2B (11736163_a_at) / Fold change /veh CDKN2B (11736163_a_at) / RFU PRF1 (11729649_at) / Fold change /veh PRF1 (11729649_at) / RFU, ZNF638 /// ZNF638-IT1 / Fold change vs veh, ZNF638 /// ZNF638-IT1 / RFU, PANK3 / Fold change vs veh, PANK3 / RFU, SH3YL1 / Fold change vs veh, SH3YL1 / RFU, ZEB2 / Fold change vs veh, ZEB2 / RFU, NRIP1 / Fold change vs veh, NRIP1 / RFU, PTTG1IP / Fold change vs veh, PTTG1IP / RFU, CAPN2 / Fold change vs veh, CAPN2 / RFU, MED14 / Fold change vs veh, MED14 / RFU, SNORA58 / Fold change vs veh, SNORA58 / RFU, C1orf63 / Fold change vs veh, C1orf63 / RFU, LRRFIP1 / Fold change vs veh, LRRFIP1 / RFU, NDUFAF7 / Fold change vs veh, NDUFAF7 / RFU, SLC12A2 / Fold change vs veh, SLC12A2 / RFU, IBTK / Fold change vs veh, IBTK / RFU, ESF1 / Fold change vs veh, ESF1 / Fold change vs veh, TMEM50B / RFU, TAOK1 / Fold change vs veh, TAOK1 / RFU, ACBD3 / Fold change vs veh, ACBD3 / RFU, TMA16 / Fold change vs veh, TMA16 / RFU, RWDD3 / Fold change vs veh, RWDD3 / RFU, BCAT1 / Fold change vs veh, BCAT1 / RFU, EDEM3 / Fold change vs veh, EDEM3 / RFU, TMEM33 / Fold change vs veh, TMEM33 / RFU, WDR75 / Fold change vs veh, WDR75 / RFU, AHCTF1 / Fold change vs veh, AHCTF1 / RFU, TFRC / Fold change vs veh, TFRC / RFU, ZDHHC17 / Fold change vs veh, ZDHHC17 / RFU, NOM1 / Fold change vs veh, NOM1 / RFU, ARL8B / Fold change vs veh, ARL8B / RFU, ZBTB11 / Fold change vs veh, ZBTB11 / RFU, TAMM41 / Fold change vs veh, TAMM41 / RFU, KIAA1704 /// LOC100996395 / Fold change vs veh, KIAA1704 /// LOC100996395 / RFU, ING1 / Fold change vs veh, ING1 / RFU, TRMT61B / Fold change vs veh, TRMT61B / RFU, FUBP3 / Fold change vs veh, FUBP3 / RFU, TP53 / Fold change vs veh, TP53 / RFU, TNKS2 / Fold change vs veh, TNKS2 / RFU, ZFP14 / Fold change vs veh, ZFP14 / RFU, ACTR2 / Fold change vs veh, ACTR2 / RFU, PPP3R1 / Fold change vs veh, PPP3R1 / RFU, PIK3R1 / Fold change vs veh, PIK3R1 / RFU, HNRNPA1 / Fold change vs veh, HNRNPA1 / RFU, RNF170 / Fold change vs veh, RNF170 / RFU, ZNF28 / Fold change vs veh, ZNF28 / RFU, RNGTT / Fold change vs veh, RNGTT / RFU, OGT / Fold change vs veh, OGT / RFU, BRD1 / Fold change vs veh, BRD1 / RFU, MARS / Fold change vs veh, MARS / RFU, ZNF655 / Fold change vs veh, ZNF655 / RFU, FAHD1 / Fold change vs veh, FAHD1 / RFU, BDP1 / Fold change vs veh, BDP1 / RFU, LRRCC1 / Fold change vs veh, LRRCC1 / RFU, ARID1A / Fold change vs veh, ARID1A / RFU, ZNF146 / Fold change vs veh, ZNF146 / RFU, ZNF330 / Fold change vs veh, ZNF330 / RFU, GPN3 / Fold change vs veh, GPN3 / RFU, C9orf123 / Fold change vs veh, C9orf123 / RFU, N4BP2L2 / Fold change vs veh, N4BP2L2 / RFU, ARFIP1 / Fold change vs veh, ARFIP1 / RFU, FAM179B / Fold change vs veh, FAM179B / RFU, BCL10 / Fold change vs veh, BCL10 / RFU, UHRF1BP1L / Fold change vs veh, UHRF1BP1L / RFU, BET1 / Fold change vs veh, BET1 / RFU, CNOT2 / Fold change vs veh, CNOT2 / RFU, ZNF268 / Fold change vs veh, ZNF268 / Fold change vs veh, ZNF507 / RFU, DGCR2 / Fold change vs veh, DGCR2 / RFU, WDSUB1 / Fold change vs veh, WDSUB1 / Fold change vs veh, HSP90B1 /// MIR3652 / RFU, ADSS / Fold change vs veh, ADSS / RFU, GK / Fold change vs veh, GK / RFU, ZNF148 / Fold change vs veh, ZNF148 / RFU, TAF9 / Fold change vs veh, TAF9 / RFU, SLC1A5 / Fold change vs veh, SLC1A5 / RFU, SLMO2 / Fold change vs veh, SLMO2 / RFU, ABCC4 / Fold change vs veh, ABCC4 / RFU, LOC101060439 /// RAP1B / Fold change vs veh, LOC101060439 /// RAP1B / RFU, RFX7 / Fold change vs veh, RFX7 / RFU, GTPBP10 / Fold change vs veh, GTPBP10 / RFU, CNEP1R1 / Fold change vs veh, CNEP1R1 / RFU, BIVM-ERCC5 /// ERCC5 / Fold change vs veh, BIVM-ERCC5 /// ERCC5 / RFU, ILF3 / Fold change vs veh, ILF3 / RFU 11762660_at / Fold change /veh 11762660_at / RFU VCAN (11757783_s_at) / Fold change /veh VCAN (11757783_s_at) / RFU DDX43 (11728927_at) / Fold change /veh DDX43 (11728927_at) / RFU KRT8 (11758188_x_at) / Fold change /veh KRT8 (11758188_x_at) / RFU NKD1 (11759106_at) / Fold change /veh NKD1 (11759106_at) / RFU SRD5A1 (11742802_a_at) / Fold change /veh SRD5A1 (11742802_a_at) / RFU TPSAB1 /// TPSB2 (11721975_s_at) / Fold change /veh TPSAB1 /// TPSB2 (11721975_s_at) / RFU GSTM3 (11746129_a_at) / Fold change /veh GSTM3 (11746129_a_at) / RFU IL23R (11737362_x_at) / Fold change /veh IL23R (11737362_x_at) / RFU TMEM51 (11727254_a_at) / Fold change /veh TMEM51 (11727254_a_at) / RFU PIWIL2 (11732686_x_at) / Fold change /veh PIWIL2 (11732686_x_at) / RFU ORM1 (11744905_x_at) / Fold change /veh ORM1 (11744905_x_at) / RFU CCDC152 (11743942_at) / Fold change /veh CCDC152 (11743942_at) / RFU ECM1 (11717891_a_at) / Fold change /veh ECM1 (11717891_a_at) / RFU IL23R (11748794_a_at) / Fold change /veh IL23R (11748794_a_at) / RFU TNFAIP8L3 (11732012_x_at) / Fold change /veh TNFAIP8L3 (11732012_x_at) / RFU MBOAT4 (11741988_at) / Fold change /veh MBOAT4 (11741988_at) / RFU 11764193_at / Fold change /veh 11764193_at / RFU TMEM53 (11763286_at) / Fold change /veh TMEM53 (11763286_at) / RFU MAGEB2 (11727129_at) / Fold change /veh MAGEB2 (11727129_at) / RFU TMEM200A (11744735_a_at) / Fold change /veh TMEM200A (11744735_a_at) / RFU CCDC152 (11751479_a_at) / Fold change /veh CCDC152 (11751479_a_at) / RFU FAM211A (11726209_a_at) / Fold change /veh FAM211A (11726209_a_at) / RFU RGS16 (11746705_a_at) / Fold change /veh RGS16 (11746705_a_at) / RFU VCAN (11755009_s_at) / Fold change /veh VCAN (11755009_s_at) / RFU RHOB (11743442_s_at) / Fold change /veh RHOB (11743442_s_at) / RFU RGS16 (11720943_a_at) / Fold change /veh RGS16 (11720943_a_at) / RFU RGS16 (11720944_at) / Fold change /veh RGS16 (11720944_at) / RFU, VPS4B / Fold change vs veh, VPS4B / RFU, CREB1 / Fold change vs veh, CREB1 / RFU, DNAJC13 / Fold change vs veh, DNAJC13 / RFU, GNAQ / Fold change vs veh, GNAQ / RFU, CDK5R1 / Fold change vs veh, CDK5R1 / RFU, ZRANB3 / Fold change vs veh, ZRANB3 / RFU, CUL4A / Fold change vs veh, CUL4A / RFU, CCNY / Fold change vs veh, CCNY / RFU, UFL1 / Fold change vs veh, UFL1 / RFU, COG3 / Fold change vs veh, COG3 / RFU, DIAPH2 / Fold change vs veh, DIAPH2 / RFU, SKA2 / Fold change vs veh, SKA2 / RFU, AFF3 / Fold change vs veh, AFF3 / RFU, LMF1 / Fold change vs veh, LMF1 / RFU, IPO11 / Fold change vs veh, IPO11 / RFU, DFFB / Fold change vs veh, DFFB / RFU, FOXP1 / Fold change vs veh, FOXP1 / RFU, CARD8 / Fold change vs veh, CARD8 / RFU, STRN3 / Fold change vs veh, STRN3 / RFU, ADK / Fold change vs veh, ADK / RFU, RASSF2 / Fold change vs veh, RASSF2 / RFU, WIPF1 / Fold change vs veh, WIPF1 / RFU, LARP1B / Fold change vs veh, LARP1B / RFU, RASA1 / Fold change vs veh, RASA1 / RFU, RB1 / Fold change vs veh, RB1 / RFU, PPFIA1 / Fold change vs veh, PPFIA1 / RFU, MAT2A / Fold change vs veh, MAT2A / RFU, CCT5 / Fold change vs veh, CCT5 / RFU, WDR92 / Fold change vs veh, WDR92 / RFU, CUX1 / Fold change vs veh, CUX1 / RFU, TTC7A / Fold change vs veh, TTC7A / RFU, TMEM135 / Fold change vs veh, TMEM135 / RFU, DEPTOR / Fold change vs veh, DEPTOR / RFU, CPM / Fold change vs veh, CPM / RFU, DNAJB6 / Fold change vs veh, DNAJB6 / RFU, CACNA2D3 / Fold change vs veh, CACNA2D3 / RFU, DTX4 / Fold change vs veh, DTX4 / RFU, TFCP2 / Fold change vs veh, TFCP2 / RFU, GMCL1 /// GMCL1P1 / Fold change vs veh, GMCL1 /// GMCL1P1 / RFU, AEBP2 / Fold change vs veh, AEBP2 / RFU, SNHG1 /// SNORD22 /// SNORD25 /// SNORD26 /// SNORD27 /// SNORD28 /// SNORD29 /// SNORD31 / Fold change vs veh, SNHG1 /// SNORD22 /// SNORD25 /// SNORD26 /// SNORD27 /// SNORD28 /// SNORD29 /// SNORD31 / Fold change (Aza/veh), C12orf56 (ProbeSet 11735607_a_at) / Fold change (ACY-1035/veh), C12orf56 (ProbeSet 11735607_a_at) / Fold change (Aza/veh), FGFR1OP (ProbeSet 11751329_s_at) / Fold change (ACY-1035/veh), FGFR1OP (ProbeSet 11751329_s_at) / Fold change (Aza/veh), VPS36 (ProbeSet 11739960_a_at) / Fold change (ACY-1035/veh), VPS36 (ProbeSet 11739960_a_at) / RFU SYPL1 (11715823_x_at) / Fold change /veh SYPL1 (11715823_x_at) / RFU IGFBP7 (11715501_s_at) / Fold change /veh IGFBP7 (11715501_s_at) / RFU REEP3 (11722064_at) / Fold change /veh REEP3 (11722064_at) / RFU IGLL1 (11728026_x_at) / Fold change /veh IGLL1 (11728026_x_at): dose or concentration left out as unconfirmed
Conditions: MV-4-11 cells, 48 hours

Nc1ncn([C@@H]2O[C@H](CO)[C@@H](O)[C@H]2O)c(=O)n1 [azacitidine]
Fold change /veh NR4A2 (11747474_a_at): 0.97
